From publication PMC9544254 (Clinical and Experimental Allergy, 2022)

How the values were obtained:
FXa = FXa (Homo sapiens, UniProt P00742); assay: isolated enzyme kinetic fluorogenic substrate IC50 assay; type: biochemical; conditions: 5 min pre‐incubation
Description: (§3) Protease inhibition was measured by monitoring the rate of fluorescence generation at a fixed substrate concentration over a range of inhibitor concentrations. […] To estimate the IC50, a 4‐parameter logistic dose‐response curve was fitted to the normalized rate of fluorescence increase.

[1] = phase 2: plasma concentrations of KVD900 in HAE subjects; type: in vivo; conditions: both sexes, human, HAE Type 1 and Type 2 subjects, 600 mg oral tablets, arithmetic mean, n = 42
Description: (§1) Participants with HAE were within their intercritical period. Blood samples were collected into 3.2% sodium citrate, centrifuged at 1500 g for 10 min at 4°C, and plasma was stored at −80°C until analysis. Additional information on these trials can be found elsewhere (NCT04349800 and NCT04208412, available at https://clinicaltrials.gov).

Cathepsin D = Cathepsin D (Homo sapiens, UniProt P07339); assay: isolated enzyme kinetic fluorogenic substrate IC50 assay; type: biochemical; conditions: 5 min pre‐incubation
Description: as §3

Trypsin = assay: as above; type: biochemical, human; conditions: 5 min pre‐incubation
Description: as §3

PKa [2] = target: T1, PKa (Homo sapiens, UniProt P03952); assay: phase 1: DXS‐stimulated PKa activity in plasma after oral KVD900; type: in vivo; conditions: healthy male volunteers, 600 mg oral powder in capsule, read-out: inhibition of DXS‐stimulated PKa activity compared with pre‐dose
T1 construct: host or cells: human pooled plasma, stimulated with dextran sulphate
T1 sequence (P03952 391-638 limits assumed): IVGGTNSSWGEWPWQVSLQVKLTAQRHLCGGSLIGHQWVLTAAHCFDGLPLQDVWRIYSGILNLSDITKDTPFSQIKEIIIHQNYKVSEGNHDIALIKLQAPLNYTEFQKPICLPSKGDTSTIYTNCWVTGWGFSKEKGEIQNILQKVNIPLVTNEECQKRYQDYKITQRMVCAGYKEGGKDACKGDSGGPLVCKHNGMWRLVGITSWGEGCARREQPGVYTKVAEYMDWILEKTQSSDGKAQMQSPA
T1 sequence (P03952 20-390 partner limits assumed): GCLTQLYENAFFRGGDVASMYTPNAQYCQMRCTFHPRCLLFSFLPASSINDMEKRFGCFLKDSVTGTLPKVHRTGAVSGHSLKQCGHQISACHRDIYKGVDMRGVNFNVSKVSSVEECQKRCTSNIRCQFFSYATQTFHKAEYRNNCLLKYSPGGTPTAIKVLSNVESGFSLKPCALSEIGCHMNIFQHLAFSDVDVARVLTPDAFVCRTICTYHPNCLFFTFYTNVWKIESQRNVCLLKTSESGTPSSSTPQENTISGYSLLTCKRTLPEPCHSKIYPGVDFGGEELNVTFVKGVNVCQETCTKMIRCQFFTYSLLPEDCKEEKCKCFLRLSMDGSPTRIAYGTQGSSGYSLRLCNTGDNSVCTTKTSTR
Description: PKa enzyme activity was measured in human pooled plasma (control plasma, Affinity Biologicals) using H‐D‐Pro‐Phe‐Arg‐AFC. The KKS in plasma was stimulated by the addition of dextran sulphate 500 kDa (DXS; Sigma‐Aldrich). PKa activity in the plasma was estimated based on the maximum rate of fluorescence increase. […] Plasma samples were stimulated with 6.25 or 10 µg/ml DXS and PKa enzyme activity was measured as described above. Percent plasma protein binding (PPB %) was determined using Rapid Equilibrium Dialysis (Pierce RED technology, ThermoFisher Scientific). Compounds were spiked into control plasma (final concentration 5 μM) and dialysed against phosphate buffer (pH 7.4) for 5 h at 37°C. Samples were analysed using liquid chromatography‐tandem mass spectrometry to quantify the fraction of unbound compound.
as §1

Cathepsin G = Cathepsin G (Homo sapiens, UniProt P08311); assay: isolated enzyme kinetic fluorogenic substrate IC50 assay; type: biochemical; conditions: 5 min pre‐incubation
Chain of Cathepsin G (P08311 21-255): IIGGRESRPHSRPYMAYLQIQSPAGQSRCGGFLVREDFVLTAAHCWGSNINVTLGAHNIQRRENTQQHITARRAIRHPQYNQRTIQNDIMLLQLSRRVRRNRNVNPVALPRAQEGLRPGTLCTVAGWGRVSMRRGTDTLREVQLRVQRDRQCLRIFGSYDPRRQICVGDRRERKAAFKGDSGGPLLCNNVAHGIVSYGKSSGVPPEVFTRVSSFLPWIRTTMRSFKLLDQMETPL
Description: as §3

FXII = assay: phase 1: capillary immunoassay of FXII and FXIIa in DXS‐stimulated plasma after oral KVD900; type: in vivo, human; conditions: healthy volunteers, 600 mg oral
Description: (§2) Undiluted plasma samples obtained at pre‐dose and post‐dose from healthy controls and HAE patients from clinical trials with KVD900, described below, were stimulated with DXS, as described above. Reactions were stopped by rapidly heating samples to 95°C for 10 min in Laemmli buffer containing β‐mercaptoethanol. Components of the KKS in plasma samples (diluted 1:20) were separated by capillary electrophoresis using 12–230 kDa separation modules in the Protein Simple WES^TM system (ProteinSimple). Proteins were detected by immunoassay and quantified from peak areas corresponding to chemiluminescence intensities using Compass for Simple Western software (Version 4.0.0, ProteinSimple) and visualized as virtual blots generated from capillary electropherograms as previously described.[18] Standard curves were generated to estimate protein concentrations in plasma using known quantities of purified HK, plasma prekallikrein (PK), FXII and FXIIa (Enzyme Research Laboratories), spiked into HK (Affinity Biologicals), PK (Affinity Biologicals) and FXII (Technoclone) deficient plasma respectively. Immunodetection was performed using primary antibodies for PK (clone 13G11) (Invitrogen), HK and cHK: KNG17A12 Antibody (Molecular Innovations), FXII and FXIIa: FXII20B2 antibody (Molecular Innovations) and horseradish peroxidase‐conjugated secondary antibody. The anti‐HK light chain antibody used detected HK and two cHK bands. The total cHK was quantified by taking the sum of the peak areas for both cHK bands.
as §1

HK cleavage [3] = assay: phase 2: DXS‐stimulated HK cleavage assay in HAE plasma after oral KVD900; type: in vivo, human
Description: as §2, §1

Beta‐secretase 1 = Beta‐secretase 1 (Homo sapiens, UniProt P56817); assay: isolated enzyme kinetic fluorogenic substrate IC50 assay; type: biochemical; conditions: 5 min pre‐incubation
Chain of Beta‐secretase 1 (P56817 46-501): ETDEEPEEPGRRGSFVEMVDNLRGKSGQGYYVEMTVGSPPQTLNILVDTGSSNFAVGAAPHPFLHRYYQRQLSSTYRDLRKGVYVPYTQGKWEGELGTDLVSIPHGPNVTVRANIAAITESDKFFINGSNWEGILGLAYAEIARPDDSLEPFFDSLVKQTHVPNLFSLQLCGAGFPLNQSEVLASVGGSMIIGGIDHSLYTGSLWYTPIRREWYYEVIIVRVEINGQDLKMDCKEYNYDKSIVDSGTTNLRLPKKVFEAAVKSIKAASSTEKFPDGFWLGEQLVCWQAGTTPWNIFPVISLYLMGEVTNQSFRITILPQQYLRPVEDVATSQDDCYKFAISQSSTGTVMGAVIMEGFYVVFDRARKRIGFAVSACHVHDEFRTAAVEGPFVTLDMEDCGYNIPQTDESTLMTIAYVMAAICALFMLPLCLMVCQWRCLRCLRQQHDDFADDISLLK
Description: as §3

Tissue kallikrein = Tissue kallikrein (Homo sapiens, UniProt P06870); assay: as above; type: biochemical; conditions: 5 min pre‐incubation
Chain of Tissue kallikrein (P06870 25-262): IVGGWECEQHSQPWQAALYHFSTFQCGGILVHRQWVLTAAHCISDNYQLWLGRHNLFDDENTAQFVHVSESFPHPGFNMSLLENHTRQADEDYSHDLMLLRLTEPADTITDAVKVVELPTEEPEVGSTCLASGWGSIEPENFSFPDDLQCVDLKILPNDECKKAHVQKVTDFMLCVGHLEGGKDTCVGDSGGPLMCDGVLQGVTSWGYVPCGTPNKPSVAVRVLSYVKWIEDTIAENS
Description: as §3

Plasmin = Plasmin (Homo sapiens, UniProt P00747); assay: as above; type: biochemical; conditions: 5 min pre‐incubation
Chain of Plasmin (P00747 581-810 limits assumed): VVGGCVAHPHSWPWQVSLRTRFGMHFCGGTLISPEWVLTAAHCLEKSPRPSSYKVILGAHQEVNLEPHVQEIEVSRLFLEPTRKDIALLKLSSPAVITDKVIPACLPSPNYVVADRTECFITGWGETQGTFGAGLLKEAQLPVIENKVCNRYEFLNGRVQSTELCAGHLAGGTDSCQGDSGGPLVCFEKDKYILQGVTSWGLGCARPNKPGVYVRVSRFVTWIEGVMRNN
Chain of Plasmin (P00747 97-580 partner limits assumed): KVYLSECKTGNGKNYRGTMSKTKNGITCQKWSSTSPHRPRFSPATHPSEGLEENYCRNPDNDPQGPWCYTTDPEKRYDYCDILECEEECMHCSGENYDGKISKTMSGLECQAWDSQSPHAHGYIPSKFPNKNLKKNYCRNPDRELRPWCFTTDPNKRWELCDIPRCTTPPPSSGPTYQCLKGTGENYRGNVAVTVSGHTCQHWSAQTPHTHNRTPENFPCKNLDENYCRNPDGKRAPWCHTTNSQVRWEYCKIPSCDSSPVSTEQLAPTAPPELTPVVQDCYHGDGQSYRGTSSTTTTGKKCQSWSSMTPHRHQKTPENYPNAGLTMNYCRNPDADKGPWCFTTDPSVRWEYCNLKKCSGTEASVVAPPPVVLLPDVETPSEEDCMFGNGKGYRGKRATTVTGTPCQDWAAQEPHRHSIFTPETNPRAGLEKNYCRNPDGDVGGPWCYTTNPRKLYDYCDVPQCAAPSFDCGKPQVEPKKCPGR
Description: as §3

FXIIa = FXIIa (Homo sapiens, UniProt P00748); assay: as above; type: biochemical; conditions: 5 min pre‐incubation
Chain of FXIIa (P00748 373-615 limits assumed): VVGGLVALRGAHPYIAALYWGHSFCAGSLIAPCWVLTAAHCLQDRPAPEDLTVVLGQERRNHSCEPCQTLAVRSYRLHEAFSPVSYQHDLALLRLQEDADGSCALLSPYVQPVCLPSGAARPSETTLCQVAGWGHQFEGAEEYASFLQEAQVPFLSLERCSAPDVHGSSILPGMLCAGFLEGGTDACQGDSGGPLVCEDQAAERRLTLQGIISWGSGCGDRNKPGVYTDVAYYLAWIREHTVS
Description: as §3

[4] = plasma protein binding, Rapid Equilibrium Dialysis; type: in vitro ADME; conditions: human, pH 7.4, control plasma, dialysed 5 h at 37°C, read-out: plasma protein binding (PPB) (converted)
Description: PKa enzyme activity was measured in human pooled plasma (control plasma, Affinity Biologicals) using H‐D‐Pro‐Phe‐Arg‐AFC. The KKS in plasma was stimulated by the addition of dextran sulphate 500 kDa (DXS; Sigma‐Aldrich). PKa activity in the plasma was estimated based on the maximum rate of fluorescence increase. […] Percent plasma protein binding (PPB %) was determined using Rapid Equilibrium Dialysis (Pierce RED technology, ThermoFisher Scientific). Compounds were spiked into control plasma (final concentration 5 μM) and dialysed against phosphate buffer (pH 7.4) for 5 h at 37°C. Samples were analysed using liquid chromatography‐tandem mass spectrometry to quantify the fraction of unbound compound.

[5] = tested on: plasma prekallikrein (PK); assay: phase 1: capillary immunoassay of PK in DXS‐stimulated plasma after oral KVD900; type: in vivo, human; conditions: healthy volunteers, 600 mg oral
Description: as §2, §1

[6] = target: Tissue plasminogen activator (Homo sapiens, UniProt P00750); assay: isolated enzyme kinetic fluorogenic substrate IC50 assay; type: biochemical; conditions: 5 min pre‐incubation
Chain of Tissue plasminogen activator (P00750 36-562): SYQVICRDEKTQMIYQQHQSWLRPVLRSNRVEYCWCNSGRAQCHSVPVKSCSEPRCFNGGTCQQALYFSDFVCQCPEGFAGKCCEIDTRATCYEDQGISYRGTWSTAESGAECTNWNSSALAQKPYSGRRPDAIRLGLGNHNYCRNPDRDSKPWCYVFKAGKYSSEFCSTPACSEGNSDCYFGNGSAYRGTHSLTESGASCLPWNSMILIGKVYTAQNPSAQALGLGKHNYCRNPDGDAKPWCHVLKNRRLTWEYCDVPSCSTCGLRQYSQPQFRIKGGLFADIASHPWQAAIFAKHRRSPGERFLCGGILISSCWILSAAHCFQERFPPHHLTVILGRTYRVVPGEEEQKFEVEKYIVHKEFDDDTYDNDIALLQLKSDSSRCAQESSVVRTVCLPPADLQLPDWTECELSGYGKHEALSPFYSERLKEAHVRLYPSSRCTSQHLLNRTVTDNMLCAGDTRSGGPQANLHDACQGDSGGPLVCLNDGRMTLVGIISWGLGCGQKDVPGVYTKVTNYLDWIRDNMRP
Description: as §3

FVIIa = FVIIa (Homo sapiens, UniProt P08709); assay: as above; type: biochemical; conditions: 5 min pre‐incubation
Chain of FVIIa (P08709 213-466 limits assumed): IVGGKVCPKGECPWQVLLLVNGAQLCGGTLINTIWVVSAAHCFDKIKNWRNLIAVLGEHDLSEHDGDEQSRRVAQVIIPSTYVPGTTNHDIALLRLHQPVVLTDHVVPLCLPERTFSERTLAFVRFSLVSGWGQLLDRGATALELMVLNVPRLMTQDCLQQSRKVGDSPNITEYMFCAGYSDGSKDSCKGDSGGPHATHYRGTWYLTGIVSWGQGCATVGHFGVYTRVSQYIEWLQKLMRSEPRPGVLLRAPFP
Chain of FVIIa (P08709 61-212 partner limits assumed): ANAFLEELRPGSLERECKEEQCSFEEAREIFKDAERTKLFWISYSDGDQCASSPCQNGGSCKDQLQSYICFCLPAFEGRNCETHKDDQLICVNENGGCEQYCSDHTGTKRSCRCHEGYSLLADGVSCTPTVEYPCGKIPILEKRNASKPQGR
Description: as §3

Thrombin = Thrombin (Homo sapiens, UniProt P00734); assay: as above; type: biochemical; conditions: 5 min pre‐incubation
Description: as §3

HK cleavage [7] = assay: phase 1: capillary immunoassay of HK and cHK in DXS‐stimulated plasma after oral KVD900; type: in vivo, human; conditions: 600 mg oral
Description: as §2, §1

Tryptase = assay: isolated enzyme kinetic fluorogenic substrate IC50 assay; type: biochemical, human; conditions: 5 min pre‐incubation
Description: as §3

FXIa = FXIa (Homo sapiens, UniProt P03951); assay: as above; type: biochemical; conditions: 5 min pre‐incubation
Chain of FXIa (P03951 388-625 limits assumed): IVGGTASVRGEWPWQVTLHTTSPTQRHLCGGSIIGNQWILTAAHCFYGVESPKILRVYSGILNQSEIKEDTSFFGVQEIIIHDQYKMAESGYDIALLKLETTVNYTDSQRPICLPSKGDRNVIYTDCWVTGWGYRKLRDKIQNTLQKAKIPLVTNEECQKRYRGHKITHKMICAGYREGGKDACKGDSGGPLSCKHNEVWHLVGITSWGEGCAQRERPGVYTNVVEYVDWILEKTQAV
Chain of FXIa (P03951 19-387 partner limits assumed): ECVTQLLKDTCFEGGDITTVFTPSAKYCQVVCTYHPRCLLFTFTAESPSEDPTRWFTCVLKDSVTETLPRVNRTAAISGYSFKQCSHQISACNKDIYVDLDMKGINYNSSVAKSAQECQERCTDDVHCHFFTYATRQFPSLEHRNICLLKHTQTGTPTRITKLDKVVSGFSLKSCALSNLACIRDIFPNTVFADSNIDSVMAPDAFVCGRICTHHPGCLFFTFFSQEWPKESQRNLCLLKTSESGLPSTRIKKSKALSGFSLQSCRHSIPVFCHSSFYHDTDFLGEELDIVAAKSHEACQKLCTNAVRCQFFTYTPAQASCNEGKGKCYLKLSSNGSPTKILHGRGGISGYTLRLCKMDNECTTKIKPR
Description: as §3

PKa [8] = target: T1, PKa; assay: phase 2: DXS‐stimulated PKa activity in HAE plasma after oral KVD900; type: in vivo; conditions: HAE subjects (n = 12), 600 mg oral tablets; 45 min post‐dose
Renin = Renin (Homo sapiens, UniProt P00797); assay: isolated enzyme kinetic fluorogenic substrate IC50 assay; type: biochemical; conditions: 5 min pre‐incubation
Chain of Renin (P00797 67-406): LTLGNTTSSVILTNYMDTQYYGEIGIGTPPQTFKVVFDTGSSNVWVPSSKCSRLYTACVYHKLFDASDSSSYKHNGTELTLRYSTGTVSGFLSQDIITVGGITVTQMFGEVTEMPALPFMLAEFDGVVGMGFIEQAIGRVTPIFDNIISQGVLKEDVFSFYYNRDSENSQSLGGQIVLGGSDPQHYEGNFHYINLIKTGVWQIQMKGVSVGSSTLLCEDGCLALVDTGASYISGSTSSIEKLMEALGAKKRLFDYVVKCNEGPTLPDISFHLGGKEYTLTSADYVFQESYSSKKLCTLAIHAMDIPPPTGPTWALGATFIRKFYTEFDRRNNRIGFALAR
Description: as §3

PKa‐mediated HK cleavage = assay: capillary‐based immunoassay of DXS‐stimulated HK cleavage in control plasma; type: biochemical, human; conditions: for DXS‐stimulated generation of cHK: 6.25 µg/ml DXS
Description: as §2

PKa [9] = tested on: PKa; set-up: method as in PMID 7692967; conditions: cited from earlier work
[10] = six HAE patients, 600 mg oral tablets, 15 min through 4 h post‐dose

Chain of FXa (P00742 235-488 limits assumed): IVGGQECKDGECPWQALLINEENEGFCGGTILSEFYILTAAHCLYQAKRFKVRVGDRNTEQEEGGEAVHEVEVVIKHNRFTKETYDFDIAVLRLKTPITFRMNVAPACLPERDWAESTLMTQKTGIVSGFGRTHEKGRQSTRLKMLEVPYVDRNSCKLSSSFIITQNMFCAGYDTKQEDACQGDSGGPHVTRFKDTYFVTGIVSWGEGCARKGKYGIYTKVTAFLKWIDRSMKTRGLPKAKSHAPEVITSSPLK
Chain of FXa (P00742 41-179 partner limits assumed): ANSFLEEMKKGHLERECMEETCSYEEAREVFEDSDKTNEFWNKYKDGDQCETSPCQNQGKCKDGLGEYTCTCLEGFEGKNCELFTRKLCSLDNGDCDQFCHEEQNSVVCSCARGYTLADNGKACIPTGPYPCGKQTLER

COCc1nn(Cc2ccc(Cn3ccccc3=O)cc2)cc1C(=O)NCc1nccc(OC)c1F [KVD900]
IC50 (FXa): > 10 µM
Cmax [1]: 6570 ng/mL
Tmax [1]: 1.2 h
IC50 (Cathepsin D): > 10 µM
IC50 (Trypsin): > 40 µM
inhibition at 600 mg (PKa [2]; 1 h post‐dose): > 97%
inhibition at 600 mg (PKa [2]; 4 h post‐dose): > 97%
inhibition at 600 mg (PKa [2]; 6 h post‐dose): > 90%
inhibition at 600 mg (PKa [2]; 8 h post‐dose): > 83%
IC50 (Cathepsin G): > 10 µM
FXII protection in DXS‐stimulated plasma compared with pre‐dose (FXII; 1 and 6 h post‐dose): non‐significant
reduction of DXS‐stimulated generation of FXIIa compared with pre‐dose (FXII; 1 h post‐dose): > 90%
reduction of DXS‐stimulated generation of FXIIa compared with pre‐dose (FXII; 6 h post‐dose): > 90%
reduction of DXS‐stimulated generation of FXIIa compared with pre‐dose (FXII; 8 h post‐dose): > 90%
time post‐dose from which inhibition of HK cleavage (and PKa activity) is observed (HK cleavage [3]; 600 mg oral): 15 min
cHK levels in DXS‐stimulated plasma (HK cleavage [3]; [10]): comparable with unstimulated plasma
protection from DXS‐stimulated depletion of HK (HK cleavage [3]; [10]): strongly protected
IC50 (Beta‐secretase 1): > 10 µM
IC50 (Tissue kallikrein): > 10 µM
IC50 (Plasmin): > 40 µM
IC50 (FXIIa): > 40 µM
fraction unbound at 5 h, 5 μM [4]: 0.23
PK after DXS‐stimulation, % of unstimulated plasma ([5]; 1 h post‐dose): 82.7 ± 4.4%
PK after DXS‐stimulation, % of unstimulated plasma ([5]; 6 h post‐dose): 87.0± 4.1%
DXS‐stimulated decrease in PK ([5]; later time points (≥8 h)): comparable to the PK decrease observed in pre‐dose samples
IC50 [6]: > 10 µM
IC50 (FVIIa): > 10 µM
IC50 (Thrombin): > 40 µM
time for which DXS‐stimulated generation of cHK was not detectable (HK cleavage [7]): at least 6 h
cHK levels in DXS‐stimulated plasma (HK cleavage [7]; healthy volunteers, 1, 6 and 8 h post‐dose): not significantly increased compared with pre‐dose without DXS
HK remaining after DXS‐stimulation (HK cleavage [7]; healthy volunteers, 1 to 8 hours post‐dose): > 65%
IC50 (Tryptase): > 10 µM
IC50 (FXIa): > 40 µM
inhibition at 600 mg (PKa [8]): ≥ 95%
IC50 (Renin): > 10 µM
DXS‐stimulated generation of cHK (PKa‐mediated HK cleavage; 300 nM): fully inhibited
DXS‐stimulated generation of cHK (PKa‐mediated HK cleavage; 1000 nM): fully inhibited
IC50 (PKa‐mediated HK cleavage; control plasma, 15 min pre‐treatment, 6.25 µg/ml DXS on ice 17 min, read-out: IC50, protection of HK from DXS‐stimulated depletion): ~0.2 µM

B1: DX‐2930: PKa inhibitor DX‐2930 (lanadelumab), approved treatment for HAE (antibody, chains of the INN, looked up, V domains shown)
VH: EVQLLESGGGLVQPGGSLRLSCAASGFTFSHYIMMWVRQAPGKGLEWVSGIYSSGGITVYADSVKGRFTISRDNSKNTLYLQMNSLRAEDTAVYYCAYRRIGVPRRDEFDIWGQGTMVTVSS
VL: DIQMTQSPSTLSASVGDRVTITCRASQSISSWLAWYQQKPGKAPKLLIYKASTLESGVPSRFSGSGSGTEFTLTISSLQPDDFATYYCQQYNTYWTFGQGTKVEIK
reported Kon for PKa (PKa [9]): 3.4e+06 M⁻¹ s⁻¹

B2: C1‐INH: serine protease inhibitor (serpin) that covalently binds and inactivates PKa and FXIIa (protein, UniProt P05155 23-500, looked up)
Plasma protease C1 inhibitor: NPNATSSSSQDPESLQDRGEGKVATTVISKMLFVEPILEVSSLPTTNSTTNSATKITANTTDEPTTQPTTEPTTQPTIQPTQPTTQLPTDSPTQPTTGSFCPGPVTLCSDLESHSTEAVLGDALVDFSLKLYHAFSAMKKVETNMAFSPFSIASLLTQVLLGAGENTKTNLESILSYPKDFTCVHQALKGFTTKGVTSVSQIFHSPDLAIRDTFVNASRTLYSSSPRVLSNNSDANLELINTWVAKNTNNKISRLLDSLPSDTRLVLLNAIYLSAKWKTTFDPKKTRMEPFHFKNSVIKVPMMNSKKYPVAHFIDQTLKAKVGQLQLSHNLSLVILVPQNLKHRLEDMEQALSPSVFKAIMEKLEMSKFQPTLLTLPRIKVTTSQDMLSIMEKLEFFDFSYDLNLCGLTEDPDLQVSAMQHQTVLELTETGVEAAAASAISVARTLLVFEVQQPFLFVLWDQQHKFPVFMGRVYDPRA
reported Kon for PKa (PKa [9]): 17000 M⁻¹ s⁻¹
